Read-outs that look alike come from different tables or passages of the source.
Experiments:
[1] = Dose range finding study by intravenous route with toxicokinetics; format: in vivo, beagle dogs; conditions: for Dose-normalized AUClast: AUClast divided by dose in μg/kg; for clearance / half-life / Vd / AUC(0-t) / level at […]: male, beagle, iv, mean n = 2; for clearance / half-life / Vd: dog, plasma; for Vd: read-out: Vss; for AUC(0-t) / level at […]: dog plasma; for level at […]: read-out: C15 min
Protocol: The following parameters and endpoints were evaluated: mortality, clinical observations, body weights, food consumption, local reactions, clinical pathology parameters (hematology, coagulation, and clinical chemistry), organ weights, and macroscopic examinations. Both animals were sampled for toxicokinetics (TK) on each dosing occasion (i.e., on day 1, day 5, day 9 and day 13) at: pre-dose, 15 min, 30 min, 1 h, 6 h and 24 h. Blood samples were collected in K2EDTA tubes. Plasma was prepared by centrifugation (2500 g for 10 minutes, +4° C.) within 1 hour after collection, and then frozen within 1 hour after centrifugation and stored at −80° C. […] Chromatographic separation was achieved using a Waters Acquity UPLC system with a Waters Acquity HSS T3 C18 2.1×50 mm, 1.8 μm column. Chromatography was conducted at 50° C. at a flow rate of 0.7 mL/min using a mobile phase consisting of A: acetonitrile, and B: 1% formic acid in water, according to the following linear gradient: 0 to 0.1 min: 90% B; 0.1 to 4.1 min: from 90% B to 74% B; 4.1 to 4.2 min: from 74% B to 5% B; 4.2 to 4.6 min: 5% B; 4.6 to 4.7 min: from 5% B to 90% B; 4.7-5.1 min; 90% B. Detection was performed using a Sciex API6600 TOF mass spectrometer. Toxicokinetic parameters were estimated from concentration-time data using Phoenix pharmacokinetic software (version 6.4, Certara L. P.). A non-compartmental approach consistent with the bolus intravenous injection was used for parameter estimation.

[2] = Extended single-dose toxicity study including safety pharmacology endpoints, i.v. bolus (GLP); format: in vivo, beagle dogs; conditions: for tlast: median; for half-life / clearance / AUC(0-t) / level at 5 min / Vd: beagle, plasma; for half-life: harmonic mean; for level at 5 min: read-out: C5 min; for Vd: read-out: Vss
Protocol: The following parameters and endpoints were evaluated: mortality, clinical observations, body weights, food consumption, body temperature, local reactions, ophthalmology, clinical pathology parameters (hematology, coagulation, clinical chemistry, and urinalysis), cardiovascular and respiratory safety pharmacology endpoints along with FOB evaluation, organ weights, and macroscopic and microscopic examinations, and TK parameters. The animals from subset A (3 males and 3 females per group) were sampled for toxicokinetics (TK) at: pre-dose, 5 min, 15 min, 30 min, 1 h, 2 h, 3 h and 6 h. Blood samples were collected in K2EDTA tubes. Plasma was prepared by centrifugation (2500 g for 10 minutes, +4° C.) within 1 hour after collection, and then frozen within 1 hour after centrifugation and stored at −80° C. […] Chromatographic separation was achieved using a Waters Acquity UPLC system with a Waters Acquity HSS T3 C18 2.1×50 mm, 1.8 μm column. Chromatography was conducted at 50° C. at a flow rate of 0.7 mL/min using a mobile phase consisting of A: 1% formic acid in acetonitrile, and B: 1% formic acid in water, according to the following linear gradient: 0 to 0.1 min: 90% B; 0.1 to 4.1 min: from 90% B to 74% B; 4.1 to 4.2 min: from 74% B to 5% B; 4.2 to 4.6 min: 5% B; 4.6 to 4.7 min: from 5% B to 90% B; 4.7-5.1 min; 90% B. Detection was performed using a Sciex API6600 TOF mass spectrometer. Toxicokinetic parameters were estimated from concentration-time data using Phoenix pharmacokinetic software (version 6.4, Certara L. P.). A non-compartmental approach consistent with the bolus intravenous injection was used for parameter estimation.
The test item treatment led to unaffected body weights, weight gains, and food intake. Likewise, no treatment-related abnormalities were reported during ophthalmic examinations, urinalysis, blood biochemistry, coagulation, and hematology investigations. There were no related organ weight changes and macroscopic and microscopic observations at early and late necropsies. Jacketed external telemetry was used to evaluate the potential cardiovascular and respiratory effects in the Subset B. Cardiorespiratory telemetry recordings were performed during the pre-test, Day 1 and 14. The electrocardiogram (ECG) parameters (heart rate, PQ interval duration, QRS complex duration, and QT interval duration) were collected continuously after dosing over 10-minute periods up to 6 h and over 15-minute periods up to 24 h. Miyazaki's QT correction method (Miyazaki, H. & Tagawa, M. Japanese Association for Laboratory Animal Science 2002, 51, 465-75) was used to correct the influence of heart rate. […] Arterial blood pressure parameters (systolic and diastolic blood pressure and mean arterial pressure) were measured continuously during consecutive 30-minute periods at pre-dose and for up to 6 h after dosing and over consecutive 60-minute periods up to 24 h after dosing. The respiratory rate was monitored on the pre-test, Day 1 and Day 14 at 0.5, 1, 2, 3, 4, 6, 8, 12, 16, 20, and 24 h. […] The potential effects on central nervous system parameters were evaluated under restrained and non-restrained conditions using a FOB in Subset A. Neurologic, autonomic, and behavioral investigations were performed in the pre-test, pre-dose, and 1 hour after dosing on Day 1.

[3] = dog, iv, 16 ug/kg, Female, 16 μg/kg single i.v. bolus, mean n = 3
[4] = dog, iv, 16 ug/kg, Male, 16 μg/kg single i.v. bolus, mean n = 3
[5] = dog, iv, 80 ug/kg, Female, 80 μg/kg single i.v. bolus, mean n = 3
[6] = dog, iv, 80 ug/kg, Male, 80 μg/kg single i.v. bolus, mean n = 3
[7] = dog, iv, 400 ug/kg, Female, 400 μg/kg single i.v. bolus, mean n = 3
[8] = dog, iv, 400 ug/kg, Male, 400 μg/kg single i.v. bolus, mean n = 3

CC(C)C[C@@H]1NC(=O)[C@H](Cc2cccc(NC(=O)CCCS(N)(=O)=O)c2)NC(=O)[C@H](CC(=O)O)NC(=O)[C@H]2CCCN2C(=O)[C@H](CCC(=O)O)NC(=O)[C@@H](NC(=O)[C@H](CCC(N)=O)NC(=O)CN2CCN(C(=O)CN3CCN(CC(=O)O)CCN(CC(=O)O)CCN(CC(=O)O)CC3)CC2)CSCc2cccc(c2)CSC[C@@H](C(N)=O)NC(=O)[C@H](CO)NC(=O)[C@H](Cc2c[nH]c3ccccc23)NC(=O)[C@H]([C@@H](C)O)NC1=O [DPI-4452, DOTA-PPAc-Gln-[Cys(3MeBn)-Glu-pro-Asp-Af3(Cpsu)-Leu-Thr-Trp-Ser-Cys]-NH2]
Dose-normalized AUClast ([1]; Day 1, […] i.v.): 1.36 | Dose-normalized AUClast ([1]; Day 5, 0.08 mg/kg i.v.): 1.46 | Dose-normalized AUClast ([1]; Day 9, 0.4 mg/kg i.v.): 2.31 | Dose-normalized AUClast ([1]; Day 13, 0.8 mg/kg i.v.): 4.42 | dose proportionality of exposure ([1]; male beagle dogs, 25 to 800 μg/kg i.v.): exposure increased more than dose-proportionally | tolerability ([1]; male beagle dogs, i.v. bolus, ascending 25, 80, 400, 800 μg/kg/day): well tolerated systemically and locally | clearance ([1]; Day 1, 0.025 mg/kg i.v.): 11.7 mL/min/kg | half-life ([1]; Day 1, 0.025 mg/kg i.v.): 15 min | Vd ([1]; Day 1, 0.025 mg/kg i.v.): 0.22 L/kg | clearance ([1]; Day 9, 0.4 mg/kg i.v.): 6.83 mL/min/kg | half-life ([1]; Day 9, 0.4 mg/kg i.v.): 29.4 min | Vd ([1]; Day 9, 0.4 mg/kg i.v.): 0.24 L/kg | clearance ([1]; Day 13, 0.8 mg/kg i.v.): 3.52 mL/min/kg | half-life ([1]; Day 13, 0.8 mg/kg i.v.): 52.8 min | Vd ([1]; Day 13, 0.8 mg/kg i.v.): 0.32 L/kg | AUC(0-t) ([1]; Day 1, 0.025 mg/kg i.v.): 34 ng·h/mL | level at […] ([1]; Day 1, 0.025 mg/kg i.v.): 46.8 ng/mL | AUC(0-t) ([1]; Day 5, 0.08 mg/kg i.v.): 117 ng·h/mL | level at […] ([1]; Day 5, 0.08 mg/kg i.v.): 156 ng/mL | AUC(0-t) ([1]; Day 9, 0.4 mg/kg i.v.): 926 ng·h/mL | level at […] ([1]; Day 9, 0.4 mg/kg i.v.): 880 ng/mL | AUC(0-t) ([1]; Day 13, 0.8 mg/kg i.v.): 3530 ng·h/mL | level at […] ([1]; Day 13, 0.8 mg/kg i.v.): 2000 ng/mL | human equivalent dose of the NOAEL ([2]; 60 kg human): 13.3 mg | central nervous system effects (FOB) ([2]; 1 hour after dosing, 16, 80, 400 μg/kg): No effects were observed on the central nervous system | tlast ([2]; Female, 16 μg/kg single i.v. bolus): 1 h | tlast ([2]; Female, 80 μg/kg single i.v. bolus): 3 h | AUClast ([2]; Female, 400 μg/kg single i.v. bolus, mean n = 3): 771 ng·h/mL | tlast ([2]; Female, 400 μg/kg single i.v. bolus): 3 h | tlast ([2]; Male, 16 μg/kg single i.v. bolus): 1 h | tlast ([2]; Male, 80 μg/kg single i.v. bolus): 2 h | AUClast ([2]; Male, 400 μg/kg single i.v. bolus, mean n = 3): 854 ng·h/mL | tlast ([2]; Male, 400 μg/kg single i.v. bolus): 3 h | tolerability ([2]; beagle dogs, single i.v. bolus up to 400 μg/kg): well tolerated | half-life ([2]; dog, iv, 16 ug/kg, Female, 16 μg/kg single i.v. bolus): 14.3 min | clearance [2, 3]: 21.2 mL/min/kg | AUC(0-t) ([2]; dog, iv, 16 ug/kg, Female, 16 μg/kg single i.v. bolus, mean n = 3, read-out: AUClast): 12.4 ng·h/mL | level at 5 min [2, 3]: 37.7 ng/mL | Vd [2, 3]: 0.3 L/kg | half-life ([2]; dog, iv, 16 ug/kg, Male, 16 μg/kg single i.v. bolus): 15.5 min | clearance [2, 4]: 18.3 mL/min/kg | AUC(0-t) ([2]; dog, iv, 16 ug/kg, Male, 16 μg/kg single i.v. bolus, mean n = 3, read-out: AUClast): 14 ng·h/mL | level at 5 min [2, 4]: 43.5 ng/mL | Vd [2, 4]: 0.26 L/kg | half-life ([2]; dog, iv, 80 ug/kg, Female, 80 μg/kg single i.v. bolus): 23.2 min | clearance [2, 5]: 9.27 mL/min/kg | AUC(0-t) ([2]; dog, iv, 80 ug/kg, Female, 80 μg/kg single i.v. bolus, mean n = 3, read-out: AUClast): 144 ng·h/mL | level at 5 min [2, 5]: 346 ng/mL | Vd [2, 5]: 0.21 L/kg | half-life ([2]; dog, iv, 80 ug/kg, Male, 80 μg/kg single i.v. bolus): 21.7 min | clearance [2, 6]: 10.1 mL/min/kg | AUC(0-t) ([2]; dog, iv, 80 ug/kg, Male, 80 μg/kg single i.v. bolus, mean n = 3, read-out: AUClast): 132 ng·h/mL | level at 5 min [2, 6]: 332 ng/mL | Vd [2, 6]: 0.21 L/kg | half-life ([2]; dog, iv, 400 ug/kg, Female, 400 μg/kg single i.v. bolus): 21.8 min | clearance [2, 7]: 8.63 mL/min/kg | level at 5 min [2, 7]: 1760 ng/mL | Vd [2, 7]: 0.19 L/kg | half-life ([2]; dog, iv, 400 ug/kg, Male, 400 μg/kg single i.v. bolus): 23.7 min | clearance [2, 8]: 7.88 mL/min/kg | level at 5 min [2, 8]: 1840 ng/mL | Vd [2, 8]: 0.19 L/kg | NOAEL at 14 days ([2]; both sexes, dog, in vivo, iv, beagle dogs, single i.v. bolus): 0.4 mg/kg | AUC(0-t) ([2]; female, dog, iv, 400 ug/kg, females, 400 μg/kg i.v., read-out: mean AUCtlast at the NOAEL): 771 ng·h/mL | cardiovascular and respiratory safety pharmacology ([2]; jacketed external telemetry, 16, 80, 400 μg/kg): no related effect on cardiovascular or respiratory parameters | AUC(0-t) ([2]; male, dog, iv, 400 ug/kg, males, 400 μg/kg i.v., read-out: mean AUCtlast at the NOAEL): 854 ng·h/mL | NOAEL cover of the predicted human dose ([2]; total ligand mass dose 500 μg/patient): more than 25 times
